Test results taken from PubChem BioAssay (NCI).
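The concentration for 50% growth inhibition is given as GI50. TGI: concentration producing complete growth inhibition.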

Assays:
Assay in all cases: NCI-60 cell line screen, 384-well format
KM12 colon = tested on: KM12 colon
PC-3 prostate = tested on: PC-3 prostate
SNB-75 CNS = tested on: SNB-75 CNS
SNB-19 CNS = tested on: SNB-19 CNS
HCT-116 colon = tested on: HCT-116 colon
SR leukemia = tested on: SR leukemia
MCF7 breast = tested on: MCF7 breast
HOP-62 NSCLC = tested on: HOP-62 NSCLC
SK-MEL-5 melanoma = tested on: SK-MEL-5 melanoma
MOLT-4 leukemia = tested on: MOLT-4 leukemia
NCI-H522 lung = tested on: NCI-H522 lung
MDA-MB-468 breast = tested on: MDA-MB-468 breast
COLO 205 colon = tested on: COLO 205 colon
MDA-MB-435 melanoma = tested on: MDA-MB-435 melanoma
SF-295 CNS = tested on: SF-295 CNS
M14 melanoma = tested on: M14 melanoma
DU-145 prostate = tested on: DU-145 prostate
786-0 renal = tested on: 786-0 renal
K-562 leukemia = tested on: K-562 leukemia
ACHN renal = tested on: ACHN renal
NCI-H322M lung = tested on: NCI-H322M lung
TK-10 renal = tested on: TK-10 renal
SK-MEL-28 melanoma = tested on: SK-MEL-28 melanoma
UO-31 renal = tested on: UO-31 renal
HCT-15 colon = tested on: HCT-15 colon
A549 NSCLC = tested on: A549 NSCLC
HS 578T breast = tested on: HS 578T breast
T-47D breast = tested on: T-47D breast
NCI-H23 lung = tested on: NCI-H23 lung
A498 renal = tested on: A498 renal
OVCAR-5 ovarian = tested on: OVCAR-5 ovarian
MALME-3M melanoma = tested on: MALME-3M melanoma
OVCAR-8 ovarian = tested on: OVCAR-8 ovarian
IGROV1 ovarian = tested on: IGROV1 ovarian
U251 glioblastoma = tested on: U251 glioblastoma
RXF 393 renal = tested on: RXF 393 renal
MDA-MB-231 breast = tested on: MDA-MB-231 breast
NCI-H460 NSCLC = tested on: NCI-H460 NSCLC
NCI-H226 lung = tested on: NCI-H226 lung
CAKI-1 renal = tested on: CAKI-1 renal
SW-620 colon = tested on: SW-620 colon
SK-OV-3 ovarian = tested on: SK-OV-3 ovarian
BT-549 breast = tested on: BT-549 breast
HT29 colon = tested on: HT29 colon
HOP-92 NSCLC = tested on: HOP-92 NSCLC
SF-539 CNS = tested on: SF-539 CNS
CCRF-CEM leukemia = tested on: CCRF-CEM leukemia
SN12C renal = tested on: SN12C renal
OVCAR-3 ovarian = tested on: OVCAR-3 ovarian
LOX IMVI melanoma = tested on: LOX IMVI melanoma
SF-268 CNS = tested on: SF-268 CNS
RPMI-8226 leukemia = tested on: RPMI-8226 leukemia
NCI/ADR-RES ovarian = tested on: NCI/ADR-RES ovarian
EKVX NSCLC = tested on: EKVX NSCLC
OVCAR-4 ovarian = tested on: OVCAR-4 ovarian
UACC-257 melanoma = tested on: UACC-257 melanoma

Q: `C[C@H]1CNC(=O)c2cnn3ccc(nc23)N[C@H](C)c2cc(F)ccc2O1` was tested. Which TGI (KM12 colon) did it give?
A: 10100 nM

Q: What about the GI50 (PC-3 prostate) of the same molecule?
A: 668 nM

Q: And the TGI (PC-3 prostate)?
A: 4010 nM

Q: What about the GI50 (SNB-75 CNS) of the same molecule?
A: 209 nM

Q: And the TGI (SNB-75 CNS)?
A: 816 nM

Q: And the GI50 (SNB-19 CNS)?
A: 1830 nM

Q: And the TGI (SNB-19 CNS)?
A: 7860 nM

Q: And the GI50 (HCT-116 colon)?
A: 477 nM

Q: And the TGI (HCT-116 colon)?
A: 11100 nM

Q: What about the GI50 (SR leukemia) of the same molecule?
A: 37.2 nM

Q: And the TGI (SR leukemia)?
A: 116 nM

Q: What about the GI50 (MCF7 breast) of the same molecule?
A: 429 nM

Q: And the TGI (MCF7 breast)?
A: 15200 nM

Q: And the GI50 (HOP-62 NSCLC)?
A: 1120 nM

Q: What about the TGI (HOP-62 NSCLC) of the same molecule?
A: 2850 nM

Q: And the GI50 (SK-MEL-5 melanoma)?
A: 6620 nM

Q: What about the TGI (SK-MEL-5 melanoma) of the same molecule?
A: 20500 nM

Q: What about the GI50 (MOLT-4 leukemia) of the same molecule?
A: 180 nM

Q: And the TGI (MOLT-4 leukemia)?
A: 342 nM

Q: What about the GI50 (NCI-H522 lung) of the same molecule?
A: 463 nM

Q: What about the TGI (NCI-H522 lung) of the same molecule?
A: 2280 nM

Q: And the GI50 (MDA-MB-468 breast)?
A: 629 nM

Q: And the TGI (MDA-MB-468 breast)?
A: 2010 nM

Q: And the GI50 (COLO 205 colon)?
A: 1430 nM

Q: What about the TGI (COLO 205 colon) of the same molecule?
A: 2930 nM

Q: And the GI50 (MDA-MB-435 melanoma)?
A: 16100 nM

Q: What about the TGI (MDA-MB-435 melanoma) of the same molecule?
A: 49800 nM

Q: And the GI50 (SF-295 CNS)?
A: 243 nM

Q: And the TGI (SF-295 CNS)?
A: 1770 nM

Q: What about the GI50 (M14 melanoma) of the same molecule?
A: 31700 nM

Q: And the TGI (M14 melanoma)?
A: > 100000 nM

Q: What about the GI50 (DU-145 prostate) of the same molecule?
A: 1430 nM

Q: And the TGI (DU-145 prostate)?
A: 5040 nM

Q: What about the GI50 ([…]-0 renal) of the same molecule?
A: 1290 nM

Q: What about the TGI (786-0 renal) of the same molecule?
A: 2660 nM

Q: What about the GI50 (K-562 leukemia) of the same molecule?
A: 451 nM

Q: And the TGI (K-562 leukemia)?
A: 1850 nM

Q: And the GI50 (ACHN renal)?
A: 511 nM

Q: And the TGI (ACHN renal)?
A: 2650 nM

Q: What about the GI50 (NCI-H322M lung) of the same molecule?
A: 1140 nM

Q: What about the TGI (NCI-H322M lung) of the same molecule?
A: 6010 nM

Q: And the GI50 (TK-10 renal)?
A: 635 nM

Q: And the TGI (TK-10 renal)?
A: 2100 nM

Q: What about the GI50 (SK-MEL-28 melanoma) of the same molecule?
A: 17100 nM

Q: What about the TGI (SK-MEL-28 melanoma) of the same molecule?
A: 77100 nM

Q: What about the GI50 (UO-31 renal) of the same molecule?
A: 1360 nM

Q: And the TGI (UO-31 renal)?
A: 2800 nM

Q: What about the GI50 (HCT-15 colon) of the same molecule?
A: 1360 nM

Q: And the TGI (HCT-15 colon)?
A: 4600 nM

Q: What about the GI50 (A549 NSCLC) of the same molecule?
A: 439 nM

Q: What about the TGI (A549 NSCLC) of the same molecule?
A: 10800 nM

Q: And the GI50 (HS 578T breast)?
A: 249 nM

Q: What about the TGI (HS 578T breast) of the same molecule?
A: 1250 nM

Q: And the GI50 (T-47D breast)?
A: 1480 nM

Q: What about the TGI (T-47D breast) of the same molecule?
A: 15800 nM

Q: What about the GI50 (NCI-H23 lung) of the same molecule?
A: 521 nM

Q: And the TGI (NCI-H23 lung)?
A: 6750 nM

Q: What about the GI50 (A498 renal) of the same molecule?
A: 779 nM

Q: And the TGI (A498 renal)?
A: 2100 nM

Q: And the GI50 (OVCAR-5 ovarian)?
A: 527 nM

Q: What about the TGI (OVCAR-5 ovarian) of the same molecule?
A: 2910 nM

Q: What about the GI50 (MALME-3M melanoma) of the same molecule?
A: 4210 nM

Q: What about the TGI (MALME-3M melanoma) of the same molecule?
A: 30000 nM

Q: And the GI50 (OVCAR-8 ovarian)?
A: 1650 nM

Q: And the TGI (OVCAR-8 ovarian)?
A: 4080 nM

Q: What about the GI50 (IGROV1 ovarian) of the same molecule?
A: 229 nM

Q: What about the TGI (IGROV1 ovarian) of the same molecule?
A: 911 nM

Q: What about the GI50 (U251 glioblastoma) of the same molecule?
A: 2290 nM

Q: And the TGI (U251 glioblastoma)?
A: 11400 nM

Q: What about the GI50 (RXF 393 renal) of the same molecule?
A: 187 nM

Q: And the TGI (RXF 393 renal)?
A: 498 nM

Q: What about the GI50 (MDA-MB-231 breast) of the same molecule?
A: 433 nM

Q: What about the TGI (MDA-MB-231 breast) of the same molecule?
A: 2460 nM

Q: And the GI50 (NCI-H460 NSCLC)?
A: 391 nM

Q: What about the TGI (NCI-H460 NSCLC) of the same molecule?
A: 1690 nM

Q: And the GI50 (NCI-H226 lung)?
A: 525 nM

Q: And the TGI (NCI-H226 lung)?
A: 2000 nM

Q: What about the GI50 (CAKI-1 renal) of the same molecule?
A: 829 nM

Q: And the TGI (CAKI-1 renal)?
A: 2090 nM

Q: And the GI50 (SW-620 colon)?
A: 444 nM

Q: And the TGI (SW-620 colon)?
A: 2850 nM

Q: What about the GI50 (SK-OV-3 ovarian) of the same molecule?
A: 522 nM

Q: What about the TGI (SK-OV-3 ovarian) of the same molecule?
A: 2930 nM

Q: What about the GI50 (BT-549 breast) of the same molecule?
A: 1070 nM

Q: What about the TGI (BT-549 breast) of the same molecule?
A: 2300 nM

Q: What about the GI50 (HT29 colon) of the same molecule?
A: 776 nM

Q: What about the TGI (HT29 colon) of the same molecule?
A: 13400 nM

Q: What about the GI50 (HOP-92 NSCLC) of the same molecule?
A: 516 nM

Q: And the TGI (HOP-92 NSCLC)?
A: 1980 nM

Q: And the GI50 (SF-539 CNS)?
A: 1020 nM

Q: What about the TGI (SF-539 CNS) of the same molecule?
A: 2230 nM

Q: And the GI50 (CCRF-CEM leukemia)?
A: 189 nM

Q: What about the TGI (CCRF-CEM leukemia) of the same molecule?
A: 345 nM

Q: What about the GI50 (SN12C renal) of the same molecule?
A: 664 nM

Q: What about the TGI (SN12C renal) of the same molecule?
A: 2260 nM

Q: What about the GI50 (OVCAR-3 ovarian) of the same molecule?
A: 414 nM

Q: What about the TGI (OVCAR-3 ovarian) of the same molecule?
A: 2030 nM

Q: And the GI50 (LOX IMVI melanoma)?
A: 428 nM

Q: And the TGI (LOX IMVI melanoma)?
A: 1450 nM

Q: And the GI50 (SF-268 CNS)?
A: 374 nM

Q: And the TGI (SF-268 CNS)?
A: 1550 nM

Q: And the GI50 (RPMI-8226 leukemia)?
A: 1610 nM

Q: What about the TGI (RPMI-8226 leukemia) of the same molecule?
A: 3760 nM

Q: What about the GI50 (NCI/ADR-RES ovarian) of the same molecule?
A: 10600 nM

Q: And the TGI (NCI/ADR-RES ovarian)?
A: 22600 nM

Q: And the GI50 (EKVX NSCLC)?
A: 469 nM

Q: And the TGI (EKVX NSCLC)?
A: 3820 nM

Q: What about the GI50 (OVCAR-4 ovarian) of the same molecule?
A: 687 nM

Q: What about the TGI (OVCAR-4 ovarian) of the same molecule?
A: 7350 nM

Q: What about the GI50 (UACC-257 melanoma) of the same molecule?
A: 12200 nM

Q: What about the TGI (UACC-257 melanoma) of the same molecule?
A: 37400 nM
